Experimental data taken from US7989165B2, “Tape stripping methods for analysis of skin disease and pathological skin state” (DermTech International, priority 2004, dated 2011).
Where “and” joins values, the source holds several entries; their conditions need not be identical. Equal values may be shown once. Marks after values point to notes of the source that are not given here.

Key:
Type in all cases: in vivo, human
IL-8 mRNA = test: Semi-quantitative RT-PCR of IL-8 mRNA relative to β-actin in SLS-occluded skin (tape and biopsy)
Text: Clinical protocols: The study protocols were reviewed and approved by an independent IRB (BioMed IRB, San Diego) and all subjects signed informed consent. Ten healthy women, ages 21-55 were enrolled in the study. Regions of unblemished, normal appearing skin on the mid back were chosen for the application of 2 occlusive patches in the form of bandages approximately 4 cm×6.5 cm. The bandages were made using a clear, non-porous plastic hypoallergenic adhesive tape. In the center of this tape was a Webril (non-woven cotton) patch measuring approximately 2 cm×4.5 cm. One Webril patch contained 0.6 ml of 1% aqueous sodium lauryl sulfate and the other contained 0.6 ml of sterile water as the vehicle control. […] At 24 hours post application, the SLS and water patches were removed and the skin allowed to air dry for 15 minutes before scoring. The sites were scored by a trained technician using the scale provided below. Patched sites were large enough that two areas could be tape harvested without overlap and room left for a shave biopsy (˜2×2 mm). Skin sites were tape stripped with 4 tapes each and then a shave biopsy taken under local anesthetic (lidocaine HCl 1% and epinephrine 1:100,000; Abbott Laboratories). The tapes were applied to the skin using 20 seconds of firm pressure with a circular motion The tape used for tape stripping was a synthetic rubber-based adhesive on a polyurethane film (Product No. 90068, Adhesive Research, Glen Rock, Pa.). An area of uninvolved skin was tape harvested and shave biopsied in an identical manner. Tapes were stored in individual eppendorf tubes at −80 until extraction; biopsy samples were placed in buffer RLT and stored at −80 until extraction. Skin responses to each patch application were examined and graded under light supplied by a 100-watt incandescent blue bulb. The following grading scale was used: 0, no visible reaction; 1, slight, pink, patchy erythema; 2, mild confluent, pink erythema; 3, moderate erythema (definite redness) with edema; 4, strong erythema (very intense redness) with edema. In a second study, 3 subjects had 3 patches containing 1% SLS and 3 water patches applied to the mid back for 24 hours: Patches were removed, scored and tape stripped as above. In a third study, two individuals were tape stripped on uninvolved skin on the upper back at three adjacent sites as above. RNA harvested in these last two studies was used in the DNA microarray experiments described below.
Isolation of RNA: The RNA within skin cells adherent to the 4 tapes used to harvest a site was pooled by simultaneously extracting the tapes in a volume of buffer RLT (supplied with RNeasy kit). Extraction was performed using the manufacturer's directions and included a Proteinase K digestion, sonication of tapes and “on-column” DNase I digestion. RNA was eluted in 100 microliters of sterile, RNase free water. Extraction of biopsies was performed with the same kit according to the manufacturer's instructions.
Quantitative RT-PCR: 10 μl of RNA was reverse transcribed (RT) into cDNA with the Sensiscript Reverse Transcriptase kit and random hexamers in a final volume of […] according to the manufacturer's directions. The reaction was diluted 5-fold with sterile, nuclease-free water (Ambion) for use in the subsequent amplification/detection reaction. For each specific mRNA detection, 3 replicate RT^+ reactions and one RT^− (no reverse transcriptase; negative control) reaction were performed. Two amplification/detection reactions were done on each RT^+ reaction to yield a total of 6 independent determinations of the threshold value (Ct; discussed below).
(§1) Amplification and detection of specific mRNA: Specific mRNAs were converted to cDNA as described above. Specific cDNAs were semi-quantified using gene specific primer/probes (5′-nuclease assay) and fluorescence detection.

Krt-16 mRNA = test: RT-PCR of keratin-16 mRNA relative to β-actin in SLS-irritated and control skin (tape and biopsy); design: key to ΔCt,Krt-16, Tape, SLS / ΔCt,Krt-16, Biopsy, SLS: ΔCt: keratin mRNA Ct normalized to β-actin Ct in same sample
Text: (§2) The samples analyzed in this study are those described in the protocol performed by Wong et al. (Wong, Tran et al. 2004). […] Patches were removed and equivalent skin sites were biopsied and tape stripped as described in the Examples above. As an additional control, normal skin was also biopsied and tape stripped. Samples were processed for total RNA and assayed for keratin-10, keratin-16, keratin-17 and β-actin mRNA. The keratin mRNAs were normalized to β-actin mRNA in each sample. The semi-quantitative RT-PCR assay has been previously described (Wong, Tran et al. 2004).

Krt-17 mRNA = test: RT-PCR of keratin-17 mRNA relative to β-actin in SLS-irritated and control skin (tape and biopsy); design: key to ΔCt,Krt-17, Tape, SLS / ΔCt,Krt-17, Biopsy, SLS: ΔCt: keratin mRNA Ct normalized to β-actin Ct in same sample; details: for ΔCt,Krt-17, Biopsy, SLS / ΔCt,Krt-17, Tape, SLS: 1% SLS occlusive patch 24 hours, mid-back, relative to β-actin, per subject 1-10 and Average; for ΔCt,Krt-17, Biopsy, SLS / Fold Increase Krt-17/βactin mRNA ratio vs. normal, Biopsy, SLS: biopsy RNA; for ΔCt,Krt-17, Biopsy, SLS / ΔCt,Krt-17, Tape, SLS / Fold Increase Krt-17/βactin mRNA ratio vs. normal, Biopsy, SLS / Fold Increase Krt-17/βactin mRNA ratio vs. normal, Tape, SLS: sulfate; for ΔCt,Krt-17, Tape, SLS / Fold Increase Krt-17/βactin mRNA ratio vs. normal, Tape, SLS: tape-stripped RNA; for Fold Increase Krt-17/βactin mRNA ratio vs. normal, Biopsy, SLS / Fold Increase Krt-17/βactin mRNA ratio vs. normal, Tape, SLS: 1% SLS patch 24 hours vs untreated skin, per subject and Average
Text: as §2

[1] = test system: gene expression levels in skin; test: DNA microarray (Affymetrix HG-U133A GeneChip) of tape-harvested RNA, untreated vs water vs SLS-occluded skin; details: threshold p=0.003, PPDE(p) 0.99
Text: Clinical protocols: The study protocols were reviewed and approved by an independent IRB (BioMed IRB, San Diego) and all subjects signed informed consent. Ten healthy women, ages 21-55 were enrolled in the study. Regions of unblemished, normal appearing skin on the mid back were chosen for the application of 2 occlusive patches in the form of bandages approximately 4 cm×6.5 cm. The bandages were made using a clear, non-porous plastic hypoallergenic adhesive tape. In the center of this tape was a Webril (non-woven cotton) patch measuring approximately 2 cm×4.5 cm. One Webril patch contained 0.6 ml of 1% aqueous sodium lauryl sulfate and the other contained 0.6 ml of sterile water as the vehicle control. […] At 24 hours post application, the SLS and water patches were removed and the skin allowed to air dry for 15 minutes before scoring. The sites were scored by a trained technician using the scale provided below. Patched sites were large enough that two areas could be tape harvested without overlap and room left for a shave biopsy (˜2×2 mm). Skin sites were tape stripped with 4 tapes each and then a shave biopsy taken under local anesthetic (lidocaine HCl 1% and epinephrine 1:100,000; Abbott Laboratories). […] In a second study, 3 subjects had 3 patches containing 1% SLS and 3 water patches applied to the mid back for 24 hours: Patches were removed, scored and tape stripped as above. […]

GAPDH mRNA = test: Semi-quantitative RT-PCR of GAPDH mRNA relative to β-actin in SLS-occluded skin (tape and biopsy); details: 1% SLS 24 h occluded skin, mean ± SD per subject, last line average, sulfate
Text: Clinical protocols: The study protocols were reviewed and approved by an independent IRB (BioMed IRB, San Diego) and all subjects signed informed consent. Ten healthy women, ages 21-55 were enrolled in the study. Regions of unblemished, normal appearing skin on the mid back were chosen for the application of 2 occlusive patches in the form of bandages approximately 4 cm×6.5 cm. The bandages were made using a clear, non-porous plastic hypoallergenic adhesive tape. In the center of this tape was a Webril (non-woven cotton) patch measuring approximately 2 cm×4.5 cm. One Webril patch contained 0.6 ml of 1% aqueous sodium lauryl sulfate and the other contained 0.6 ml of sterile water as the vehicle control. […] The sites were scored by a trained technician using the scale provided below. […] In a second study, 3 subjects had 3 patches containing 1% SLS and 3 water patches applied to the mid back for 24 hours: Patches were removed, scored and tape stripped as above. […]
Quantitative RT-PCR: 10 μl of RNA was reverse transcribed (RT) into cDNA with the Sensiscript Reverse Transcriptase kit and random hexamers in a final volume of […] according to the manufacturer's directions. […]
as §1

[2] = SLS-occluded skin vs uninvolved skin

CCCCCCCCCCCCOS(=O)(=O)[O-].[Na+] [SLS, sodium lauryl sulfate]
fold-change in IL-8/β-actin mRNA ratio, Biopsy (IL-8 mRNA; SLS-occluded skin relative to uninvolved skin, biopsy samples, per subject, > = minimum estimate, sulfate): >171**^† fold and >12**^† fold and >101**^† fold and >778**^† fold and >42**^† fold and >594**^† fold and >368**^† fold and >1.1 fold (2×) and 84**^† fold | fold-change in IL-8/β-actin mRNA ratio, Tape (IL-8 mRNA; SLS-occluded skin relative to uninvolved skin, tape samples, per subject, > = minimum estimate, sulfate): 24**^† fold and >9.3**^† fold and >6.8** fold and >235**^† fold and >41**^† fold and 18** fold and >3** fold and 6**^† fold | biopsy samples with significant increases in IL-8/actin mRNA ratio (IL-8 mRNA; [2]): 8 of 10 | tape-harvested samples with significantly increased IL-8/β-actin mRNA ratio (IL-8 mRNA; [2]): 8 of 10 | ΔCt,IL-8, Biopsy (IL-8 mRNA; SLS-occluded skin, biopsy RNA, per subject and average, sulfate): 4.13 and 6.56 ± 0.10 and 3.06 ± 0.11 and 0.76 ± 0.13 and 5.11 ± 0.06 and 1.67 ± 0.08 and 1.06 ± 0.07 and 9.81 ± 0.26 and 9.15 ± 0.15 and 1.82 ± 0.05 and 2.29 ± 0.13 | ΔCt,IL-8, Tape (IL-8 mRNA; SLS-occluded skin, tape-harvested RNA, per subject and average, > = minimum ΔCt (Ct assigned 37), sulfate): −1.28 and −0.89 and −1.28 ± 0.11 and −3.05 ± 0.15 and −0.05 ± 0.11 and −0.68 ± 0.08 and −0.44 ± 0.06 and 0.02 ± 0.17 and 0.56 ± 0.07 and >1.51 ± 0.17 and −0.36 ± 0.05 and −2.59 ± 0.07 | IL-8/actin mRNA ratio of subject 4's SLS site vs average for water-occluded samples (IL-8 mRNA; tape-harvested, from ΔCt −1.28 and average ΔCt 1.54): 7.1 fold | IL-8/β-actin mRNA ratio of subject 4's SLS site vs average value for uninvolved skin (IL-8 mRNA; tape-harvested, from ΔCt −1.28 and average ΔCt >2.49): ≥ 13.6 fold | ΔCt,Krt-16, Biopsy, SLS (Krt-16 mRNA; 1% SLS occlusive patch 24 hours, mid-back, biopsy RNA, relative to β-actin, per subject 1-10 and Average, sulfate): 0.97 and −2.43 and −2.21 and 1.41 and −1.12 and −1.75 and −2.01 and −1.79 and 0.74 and −0.32 | ΔCt,Krt-16, Tape, SLS (Krt-16 mRNA; 1% SLS occlusive patch 24 hours, mid-back, tape-stripped RNA, relative to β-actin, per subject 1-10 and Average, sulfate): −4.51 and 3.04 and 3.96 and −2.87 and 0.53 (2×) and 3.1 and 4.32 and 2.87 and −0.97 | Fold Increase Krt-16/actin mRNA ratio vs. normal, Biopsy, SLS (Krt-16 mRNA; 1% SLS patch 24 hours vs untreated skin, biopsy RNA, per subject and Average, sulfate): 14.73 fold and 76.61 fold and 55.14 fold and 18.4 fold and 30.85 fold and 113.69 fold and 108.78 fold and 82.98 fold and 8.57 fold and 24.78 fold | Fold Increase Krt-16/actin mRNA ratio vs. normal, Tape, SLS (Krt-16 mRNA; 1% SLS patch 24 hours vs untreated skin, tape-stripped RNA, per subject and Average, sulfate): 1.25 fold and 0.03 fold and 0.01 fold and 0.2 fold and 0.02 fold and 0.04 fold and 0.17 fold | average decrease in K16 expression, tape (Krt-16 mRNA; SLS-treated skin vs untreated): 9 fold | average fold-increase of K16 mRNA expression, biopsy (Krt-16 mRNA; SLS-treated skin vs untreated): 39 fold | ΔCt,Krt-17, Biopsy, SLS (Krt-17 mRNA): 0.71 and −2.29 and −2.5 and 1.13 and −1.97 and −1.63 and −2.91 and −1.75 and −1.86 and −0.11 | ΔCt,Krt-17, Biopsy, SLS (Krt-17 mRNA; mean): −1.32 | ΔCt,Krt-17, Tape, SLS (Krt-17 mRNA): −5.12 and 1.64 and 1.5 and −4.87 and −1.79 and 1.11 and −1.84 and 1.38 and 0.21 and −2.12 | ΔCt,Krt-17, Tape, SLS (Krt-17 mRNA; mean): −0.99 | Fold Increase Krt-17/βactin mRNA ratio vs. normal, Biopsy, SLS (Krt-17 mRNA): 13.31 fold and 94.54 fold and 44.95 fold and 4.51 fold and 27.19 fold and 15.44 fold and 459.45 fold and 195.94 fold and 48.35 fold and 41.13 fold | Fold Increase Krt-17/βactin mRNA ratio vs. normal, Biopsy, SLS (Krt-17 mRNA; mean): 42.52 fold | Fold Increase Krt-17/βactin mRNA ratio vs. normal, Tape, SLS (Krt-17 mRNA): 1.67 fold and 0.02 fold (2×) and 0.01 fold and 0.17 fold and 0.05 fold and 0.04 fold and 0.5 fold | Fold Increase Krt-17/βactin mRNA ratio vs. normal, Tape, SLS (Krt-17 mRNA; mean): 0.12 fold | average fold-increase of K17, biopsy (Krt-17 mRNA; SLS-treated skin vs untreated): 42 fold | decrease of K17/actin mRNA ratio, tape (Krt-17 mRNA; SLS-treated skin vs untreated): 8 fold | number of genes differentially expressed, SLS vs water treated [1]: 1,364 genes | ΔCt,GAPDH (Ct,GAPDH − Ct,actin), Biopsy (GAPDH mRNA; shave biopsy RNA): 1.44 ± 0.11 and 1.68 ± 0.09 and 1.78 ± 0.10 and 2.33 ± 0.07 and 1.73 ± 0.09 and 1.54 ± 0.10 and 3.25 ± 0.08 and 1.05 ± 0.07 and 1.61 ± 0.11 and 1.95 ± 0.08 | ΔCt,GAPDH (Ct,GAPDH − Ct,actin), Tape (GAPDH mRNA; tape-harvested RNA): 3.02 ± 0.08 and 2.28 ± 0.10 and 3.15 ± 0.15 and 2.87 ± 0.10 and 2.68 ± 0.09 and 3 ± 0.11 and 2.85 ± 0.15 and 2.46 ± 0.08 and 2.78 ± 0.44 and 2.56 ± 0.11
